The assay relates to AsPC-1 cells. The assay can be described thus: AsPC-1 TGI-70 xenograft tumor volume study. Type of assay: in vivo, nude/nude mice. The conditions noted are these: for Average Tumor Volumes: MRTX0902 50 mg/kg BID daily, alone or combined, 5 mice per group. An excerpt: Experimental Procedures. 20 nude/nude mice were inoculated with AsPC-1 cells in the right hind flank. When the tumors reached ˜200 mm^3 four treatment groups were established with five mice per group.

The record followed here is patent US20250000863A1, “COMBINATION THERAPIES OF KRAS G12D INHIBITORS WITH SOS1 INHIBITORS” (MIRATI THERAPEUTICS, INC., priority 2021, published 2025).

`C#Cc1c(F)ccc2cc(O)cc(-c3ncc4c(N5C[C@H]6CC[C@@H](C5)N6)nc(OC[C@@]56CCCN5C[C@H](F)C6)nc4c3F)c12` [MRTX1133, 4-(4-((1R,5S)-3,8-diazabicyclo[3.2.1]octan-3-yl)-8-fluoro-2-(((2R,7aS)-2-fluorohexahydro-1H-pyrrolizin-7a-yl)methoxy)pyrido[4,3-d]pyrimidin-7-yl)-5-ethynyl-6-fluoronaphthalen-2-ol] returned a tumor regression (Day 13, MRTX1133 30 mg/kg BID daily, alone or with MRTX0902 twice daily) of 26%.
Under “Day 13, MRTX0902 50 mg/kg BID daily as a single agent”, `Cc1c(C#N)cccc1[C@@H](C)Nc1nnc(C)c2cnc(N3CCOCC3)cc12` [MRTX0902] showed a tumor growth inhibition of 26%. Besides, the “Average Tumor Volumes” value was determined as 194.8 mm^3 (Study Day 1, MRTX1133 30 mg/kg BID daily); 215.066 mm^3 (Study Day 6, MRTX1133 30 mg/kg BID daily); 220.892 mm^3 (Study Day 9, MRTX1133 30 mg/kg BID daily); 262.374 mm^3 (Study Day 13, MRTX1133 30 mg/kg BID daily); 316.164 mm^3 (Study Day 16, MRTX1133 30 mg/kg BID daily); 387.59 mm^3 (Study Day 20, MRTX1133 30 mg/kg BID daily). For the same compound, the “Average Tumor Volumes” value (Study Day 23, MRTX1133 30 mg/kg BID daily) was found to be 480.782 mm^3.
